What all share (type): in vivo
Experiment [1] concerns barnyardgrass (Echinochloa crus-galli). Put plainly: Test A pre-/postemergence: barnyardgrass. To be noted: Echinochloa crus-galli, 240 h; for pest or weed control at 125 g/ha: 125 g ai/ha; for pest or weed control at 500 g/ha: 500 g ai/ha. In short, it runs like this:
(§1)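 Each species received preemergence soil-directed spraying and, at the same time, postemergence treatment of seedlings 2–10 cm tall. Formulation: non-phytotoxic solvent mixture including surfactant. Response assessed visually about ten days on, relative to untreated controls, 0–100 scale.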

For experiment [2], the system named is wheat (Triticum aestivum). In words: Test A pre-/postemergence: wheat. Particulars: Triticum aestivum, 240 h; for plant injury at 125 g/ha: 125 g ai/ha; for plant injury at 500 g/ha: 500 g ai/ha. In short, it runs like this:
as §1

For experiment [3], the system named is pigweed (Amaranthus retroflexus). Put plainly: Test A pre-/postemergence: pigweed. To be noted: Amaranthus retroflexus, 240 h; for pest or weed control at 125 g/ha: 125 g ai/ha; for pest or weed control at 500 g/ha: 500 g ai/ha. In short, it runs like this: as §1
The subject of experiment [4] is ryegrass, Italian (Italian ryegrass, Lolium multiflorum). Put plainly: Test C pre-/postemergence: ryegrass, Italian. The source says:
(§2) Seeds of plant species selected from blackgrass (Alopecurus myosuroides), bromegrass, downy (downy bromegrass, Bromus tectorum), foxtail, green (green foxtail, Setaria viridis), ryegrass, Italian (Italian ryegrass, Lolium multiflorum), winter wheat (Triticum aestivum), wild oat (Avena fatua), galium (catchweed bedstraw, Galium aparine), bermudagrass (Cynodon dactylon), surinam grass (Brachiaria decumbens), cocklebur (common cocklebur, Xanthium strumarium), corn (Zea mays), large crabgrass (Digitaria sanguinalis), woolly cupgrass (Eriochloa villosa), foxtail, giant (giant foxtail, Setaria faberii), goosegrass (Eleusine indica), johnsongrass (Sorghum halepense), kochia (Kochia scoparia), lambsquarters (Chenopodium album), morningglory (Ipomoea coccinea), nightshade (eastern black nightshade, Solanum ptycanthum), nutsedge, yellow (yellow nutsedge, Cyperus esculentus), pigweed (Amaranthus retroflexus), ragweed (common ragweed, Ambrosia elation), soybean (Glycine max), common (oilseed) sunflower (Helianthus annuus), Russian thistle (Salsola kali) and velvetleaf (Abutilon theophrasti) were planted into a blend of loam soil and sand and treated preemergence with test chemicals formulated in a non-phytotoxic solvent mixture which included a surfactant.
(§3) At the same time, plants selected from these crop and weed species and also barley (winter barley, Hordeum vulgare), canarygrass (Phalaris minor), chickweed (common chickweed, Stellaria media) windgrass (Apera spica-venti) and deadnettle (henbit deadnettle, Lamium amplexicaule) were planted in pots containing Redi-Earth® planting medium (Scotts Company, 14111 Scottslawn Road, Marysville, Ohio 43041) comprising spaghnum peat moss, vermiculite, wetting agent and starter nutrients and treated with postemergence applications of test chemicals formulated in the same manner. Plants ranged in height from 2 to 18 cm (1- to 4-leaf stage) for postemergence treatments.
(§4) Treated plants and controls were maintained in a greenhouse for 13 to 15 days, after which time all species were compared to controls and visually evaluated. Plant response ratings, summarized in Table C, are based on a scale of 0 to 100 where 0 is no effect and 100 is complete control. A dash (-) response means no test result.

The subject of experiment [5] is pigweed (Amaranthus retroflexus). Put plainly: Test C pre-/postemergence: pigweed.
Excerpt: as §2, §3, §4

For experiment [6], the system named is soybean (Glycine max). In words: Test C pre-/postemergence: soybean.
Excerpt: as §2, §3, §4

The test system of experiment [7] is winter wheat (Triticum aestivum). Put plainly: Test C pre-/postemergence: winter wheat.
Excerpt: as §2, §3, §4

The subject of experiment [8] is lambsquarters (Chenopodium album). Put plainly: Test C pre-/postemergence: lambsquarters.
Excerpt: as §2, §3, §4

[9] abbreviates: post-emergence, Postemergence, 0 to 100 scale, 0 is no effect, 100 is complete control, read-out: Barnyardgrass plant response rating.
[10] abbreviates: post-emergence, Postemergence, visual rating on 0 to 100 scale (0 no effect, 100 complete control), approximately ten days, read-out: Barnyardgrass plant response rating.
Setting [11] is: pre-emergence, Preemergence, 0 to 100 scale where 0 is no effect and 100 is complete control, read-out: Plant response rating, Barnyardgrass.
Setting [12] is: pre-emergence, Preemergence, 0 to 100 scale (0 no effect, 100 complete control), read-out: Plant response rating, Barnyardgrass.
Setting [13] is: post-emergence, Postemergence, 0 to 100 scale, 0 is no effect, 100 is complete control, read-out: Wheat plant response rating.
Where [14] appears, read: post-emergence, Postemergence, visual rating on 0 to 100 scale (0 no effect, 100 complete control), approximately ten days, read-out: Wheat plant response rating.
Setting [15] is: pre-emergence, Preemergence, 0 to 100 scale where 0 is no effect and 100 is complete control, read-out: Plant response rating, Wheat.
Setting [16] is: pre-emergence, Preemergence, 0 to 100 scale (0 no effect, 100 complete control), read-out: Plant response rating, Wheat.
[17] abbreviates: post-emergence, Postemergence, 0 to 100 scale, 0 is no effect, 100 is complete control, read-out: Pigweed plant response rating.
Setting [18] is: post-emergence, Postemergence, visual rating on 0 to 100 scale (0 no effect, 100 complete control), approximately ten days, read-out: Pigweed plant response rating.
[19] abbreviates: pre-emergence, Preemergence, 0 to 100 scale where 0 is no effect and 100 is complete control, read-out: Plant response rating, Pigweed.
Setting [20] is: pre-emergence, Preemergence, 0 to 100 scale (0 no effect, 100 complete control), read-out: Plant response rating, Pigweed.
The mark [21] stands for this setting: Postemergence, 16 g ai/ha, scale 0 to 100, 0 no effect, 100 complete control.
The mark [22] stands for this setting: Postemergence, 31 g ai/ha, scale 0 to 100 (0 no effect, 100 complete control).
The mark [23] stands for this setting: Postemergence, 62 g ai/ha, scale 0 to 100 (0 no effect, 100 complete control).
Where [24] appears, read: Postemergence, 125 g ai/ha, scale 0 to 100, 0 no effect, 100 complete control.
[25] abbreviates: Preemergence, 16 g ai/ha, scale 0 (no effect) to 100 (complete control).
Where [26] appears, read: Preemergence, 31 g ai/ha, scale of 0 to 100, 0 is no effect, 100 is complete control.
[27] abbreviates: Preemergence, 62 g ai/ha, scale of 0 to 100, 0 is no effect, 100 is complete control.
[28] abbreviates: Preemergence, 125 g ai/ha, scale 0 to 100, 0 no effect, 100 complete control.
Setting [29] is: pre-emergence, Preemergence, 0 to 100 scale, 0 is no effect, 100 is complete control, read-out: Plant response rating, Barnyardgrass.
The mark [30] stands for this setting: pre-emergence, Preemergence, 0 to 100 scale, 0 is no effect, 100 is complete control, read-out: Plant response rating, Wheat.
Setting [31] is: pre-emergence, Preemergence, 0 to 100 scale, 0 is no effect, 100 is complete control, read-out: Plant response rating, Pigweed.

Molecules are shown by their SMILES. Read-outs that look alike come from different tables or passages of the source.

With `COCc1nn(-c2ccc(C(F)(F)F)cc2)nc1Oc1cccc(OC(F)(F)F)c1` [Compound 115, 4-(methoxymethyl)-5-[3-(trifluoromethoxy)phenoxy]-2-[4-(trifluoromethyl)phenyl]-2H-1,2,3-triazole], the pest or weed control at 125 g/ha was found to be 20% in experiment [1] (setting [9]), 30% in experiment [1] (setting [11]), 80% in experiment [3] (setting [17]) and 100% in experiment [3] (setting [19]). The pest or weed control at 500 g/ha in experiment [1] (setting [10]) came out at 30%; in experiment [1] (setting [12]) it was 60%; in experiment [3] (setting [18]) it was 100%; in experiment [3] (setting [20]), 100%. Besides, the plant injury at 125 g/ha was determined as 10% in experiment [2] (setting [13]) and 0% in experiment [2] (setting [15]). For the same compound, the plant injury at 500 g/ha came to 20% in experiment [2] (setting [14]) and 10% in experiment [2] (setting [16]).

In the case of `COc1nn(-c2ccc(C(F)(F)F)cc2)nc1Cc1ccnc(C(F)(F)F)c1` [Compound 15, 4-[[5-methoxy-2-[4-(trifluoromethyl)phenyl]-2H-1,2,3-triazol-4-yl]methyl]-2-(trifluoromethyl)pyridine], the “Plant response rating, Ryegrass, Italian” value is 10 in experiment [4] (setting [21]); 30 in experiment [4] (setting [22]); 45 in experiment [4] (setting [23]); 60 in experiment [4] (setting [24]); 10 in experiment [4] (setting [25]); 40 in experiment [4] (setting [26]). The “Plant response rating, Ryegrass, Italian” value in experiment [4] (setting [27]) was determined as 45; in experiment [4] (setting [28]) it was 80. Further, the “Plant response rating, Pigweed” value in experiment [5] (setting [21]) was found to be 5; in experiment [5] (setting [22]) it was 60; in experiment [5] (setting [23]) it was 70; in experiment [5] (setting [24]), 90; in experiment [5] (setting [25]), 98; in experiment [5] (setting [26]), 100. In addition, the “Plant response rating, Pigweed” value in experiment [5] (setting [27]) and in experiment [5] (setting [28]) was 100 in each case. Further, the pest or weed control at 125 g/ha in experiment [1] (setting [9]) worked out at 90%; in experiment [1] (setting [12]) it was 100%; in experiment [3] (setting [17]), 100%; in experiment [3] (setting [20]), 100%. In addition, the pest or weed control at 500 g/ha in experiment [1] (setting [10]) amounted to 90%; in experiment [1] (setting [29]), 100%; in experiment [3] (setting [18]), 100%; in experiment [3] (setting [31]) it was 100%. The plant injury at 125 g/ha in experiment [2] (setting [13]) and in experiment [2] (setting [16]) was 30% in each case. Besides, the plant injury at 500 g/ha in experiment [2] (setting [14]) and in experiment [2] (setting [30]) was 50% throughout. Further, the “Plant response rating, Soybean” value in experiment [6] (setting [21]) is reported as 10; in experiment [6] (setting [22]) it was 10; in experiment [6] (setting [23]) it was 35; in experiment [6] (setting [24]), 45; in experiment [6] (setting [25]), 0; in experiment [6] (setting [26]) it was 0. In addition, the “Plant response rating, Soybean” value in experiment [6] (setting [27]) worked out at 0; in experiment [6] (setting [28]), 25. Also, the “Plant response rating, Wheat” value in experiment [7] (setting [21]) worked out at 15; in experiment [7] (setting [22]), 25; in experiment [7] (setting [23]) it was 35; in experiment [7] (setting [24]) it was 35; in experiment [7] (setting [25]), 0; in experiment [7] (setting [26]), 10. In addition, the “Plant response rating, Wheat” value in experiment [7] (setting [27]) is listed as 25; in experiment [7] (setting [28]), 50. In addition, the “Plant response rating, Lambsquarters” value in experiment [8] (setting [21]) was 100; in experiment [8] (setting [22]) it was 100; in experiment [8] (setting [23]), 100; in experiment [8] (setting [24]) it was 100; in experiment [8] (setting [25]), 95; in experiment [8] (setting [26]), 100. In addition, the “Plant response rating, Lambsquarters” value in experiment [8] (setting [27]) and in experiment [8] (setting [28]) was 100 throughout.

Turning to `Cc1nn(-c2ccc(C(F)(F)F)cc2)nc1Oc1csc(C(F)(F)F)c1` [Compound 1, 4-methyl-2-[4-(trifluoromethyl)phenyl]-5-[[5-(trifluoromethyl)-3-thienyl]oxy]-2H-1,2,3-triazole], the pest or weed control at 125 g/ha was found to be 0% in experiment [1] (setting [9]), 20% in experiment [1] (setting [12]), 90% in experiment [3] (setting [17]) and 60% in experiment [3] (setting [20]). The pest or weed control at 500 g/ha in experiment [1] (setting [10]) is 20%; in experiment [1] (setting [29]) it was 50%; in experiment [3] (setting [18]), 100%; in experiment [3] (setting [31]), 90%. For the same compound, the values for the plant injury at 125 g/ha in experiment [2] (setting [13]) and in experiment [2] (setting [16]) were 10% and 0%, respectively. For the same compound, the figures for the plant injury at 500 g/ha in experiment [2] (setting [14]) and in experiment [2] (setting [30]) were 20% and 0%, respectively.

With `FCc1nn(-c2ccc(C(F)(F)F)cc2)nc1Oc1cccc(OC(F)(F)F)c1` [Compound 116, 4-(fluoromethyl)-5-[3-(trifluoromethoxy)phenoxy]-2-[4-(trifluoromethyl)phenyl]-2H-1,2,3-triazole], the pest or weed control at 125 g/ha came to 10% in experiment [1] (setting [9]), 0% in experiment [1] (setting [11]), 50% in experiment [3] (setting [17]) and 50% in experiment [3] (setting [19]). In addition, the pest or weed control at 500 g/ha in experiment [1] (setting [10]) was determined as 20%; in experiment [1] (setting [12]) it was 30%; in experiment [3] (setting [18]), 100%; in experiment [3] (setting [20]), 100%. The plant injury at 125 g/ha in experiment [2] (setting [13]) stood at 10%; in experiment [2] (setting [15]), 0%. Also, the plant injury at 500 g/ha in experiment [2] (setting [14]) and in experiment [2] (setting [16]) was 10% each time.

The record behind these values is US9302999B2, “Substituted triazoles as herbicides” (E. I. DU PONT DE NEMOURS AND COMPANY, priority 2012, dated 2016).
